From ChEMBL document CHEMBL1149116, “2-Anilino-4-(thiazol-5-yl)pyrimidine CDK inhibitors: synthesis, SAR analysis, X-ray crystallography, and biological activity” (J Med Chem, 2004) come the findings set out here.

For assay [1], the target named is Cyclin-dependent kinase 4 (Homo sapiens, UniProt P11802).
Description: Inhibitory activity against human CDK4 (Cyclin dependent kinase 4)
Assay [2] addresses Cyclin-dependent kinase 2 (Homo sapiens, UniProt P24941).

Sequence of Cyclin-dependent kinase 4 (P11802 whole entry): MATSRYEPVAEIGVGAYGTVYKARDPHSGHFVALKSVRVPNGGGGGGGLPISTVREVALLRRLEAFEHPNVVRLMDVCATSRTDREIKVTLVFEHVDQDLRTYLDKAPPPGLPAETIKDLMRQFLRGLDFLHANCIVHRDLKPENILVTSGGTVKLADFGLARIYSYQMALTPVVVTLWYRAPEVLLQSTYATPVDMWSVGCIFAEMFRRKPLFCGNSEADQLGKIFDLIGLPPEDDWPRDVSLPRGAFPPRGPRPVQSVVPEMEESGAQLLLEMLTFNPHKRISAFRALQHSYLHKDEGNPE

`Cc1nc(C)c(-c2ccnc(Nc3ccccc3)n2)s1`: the Ki in assay [1] was 2600 nM; in assay [2] it was 80 nM.
For `CCNc1nc(C)c(-c2ccnc(Nc3cccc(O)c3)n2)s1`, the Ki was more than 20000 nM in assay [1] and more than 10000 nM in assay [2].
For `Cc1nc(C)c(-c2ccnc(Nc3ccccc3F)n2)s1`, the Ki in assay [1] and in assay [2] was 1200 nM in each case.
For `Cc1nc(C)c(-c2ccnc(N(C)c3cccc([N+](=O)[O-])c3)n2)s1`, the Ki in assay [1] and in assay [2] was more than 20000 nM each time.
`Cc1nc(-c2ccccn2)sc1-c1ccnc(Nc2cccc([N+](=O)[O-])c2)n1`: the inhibitory constant (Ki) in assay [1] and in assay [2] was more than 20000 nM throughout.
In the case of `Cc1nc(N)sc1-c1ccnc(Nc2ccc(O)cc2)n1`, the figures for the inhibition constant Ki in assay [1] and in assay [2] were 320 nM and 30 nM, respectively.
`Cc1nc(C)c(-c2ccnc(Nc3cccc(F)c3)n2)s1`: the Ki was determined as 900 nM in assay [1] and 100 nM in assay [2].
For the compound `Cc1nc(C)c(-c2ccnc(N(C)C)n2)s1`, the Ki in assay [1] and in assay [2] was more than 20000 nM throughout.
Consider `Cc1nc(C)c(-c2ccnc(Nc3ccccc3Cl)n2)s1`, for which the Ki in assay [1] and in assay [2] was more than 20000 nM throughout.
Take `CNc1nc(C)c(-c2ccnc(Nc3cccc(O)c3)n2)s1`: the Ki in assay [1] was determined as 370 nM; in assay [2] it was 110 nM.
In the case of `Cc1nc(C)c(-c2ccnc(Nc3ccc(O)cc3)n2)s1`, the values for the Ki in assay [1] and in assay [2] were 320 nM and 140 nM, respectively.
As for `Cc1nc(C)c(-c2ccnc(Nc3cccc(Cl)c3)n2)s1`, the Ki is 9400 nM in assay [1] and 670 nM in assay [2].
Regarding `Cc1nc(C)c(-c2ccnc(Nc3ccc(Cl)cc3)n2)s1`, the figures for the Ki in assay [1] and in assay [2] were more than 20000 nM and 2500 nM, respectively.
For `Cc1nc(N(C)C)sc1-c1ccnc(Nc2cccc([N+](=O)[O-])c2)n1`, in that order: 5300 nM and 60 nM.
On to `CNc1nc(C)c(-c2ccnc(Nc3cccc([N+](=O)[O-])c3)n2)s1`, for which the results for the Ki in assay [1] and in assay [2] were 1600 nM and 800 nM, respectively.
As for `CNc1nccc(-c2sc(C)nc2C)n1`, the Ki in assay [1] and in assay [2] was more than 20000 nM in each case.
`Cc1nc(C)c(-c2ccnc(Nc3cccc(C#N)c3)n2)s1`: the Ki in assay [1] is 480 nM; in assay [2], 300 nM.
Turning to `Cc1nc(C)c(-c2ccnc(Nc3cccc(C(F)(F)F)c3)n2)s1`, the Ki in assay [1] and in assay [2] was more than 20000 nM throughout.
For the compound `Cc1nc(C)c(-c2ccnc(N)n2)s1`, affinity in assay [1] was put at a Ki of 16000 nM.
With `Cc1nc(C)c(-c2ccnc(Nc3cccc(N)c3)n2)s1`, the Ki in assay [1] was found to be 10600 nM; in assay [2], 400 nM.
With `Cc1nc(C)c(-c2ccnc(Nc3ccc([N+](=O)[O-])cc3)n2)s1`, the Ki in assay [1] was more than 20000 nM; in assay [2], 4100 nM.
For `Cc1nc(C)c(-c2ccnc(Nc3ccccc3C(F)(F)F)n2)s1` the same measures were more than 20000 nM and more than 20000 nM.
